The record followed here is patent publication US10143668B2, “Hydroxy-substituted amino and ammonium derivatives and their medical use” (GRI BIO, INC., priority 2011, dated 2018).

This experiment relates to RBL-2H3 cells. Put plainly: Inhibition of mast cell degranulation (β-hexosaminidase release). Format: cell-based. To be noted: Rattus norvegicus, RBL-2H3 cells sensitized with anti-DNP IgE, triggered with DNP-HSA. The text has this:
Mast cells are key effector cells involved in allergic and inflammatory diseases, and the Rat Basophilic Leukemia clone 2H3 (RBL-2H3) cell line is a commonly used model of allergen dependent immune modulator release (degranulation) in mast cells. On their surface, they express the high affinity receptor for IgE (FcεRI) Upon binding of antigen-specific IgE to the receptor, cells become sensitized to the IgE specific antigen (allergen). When IgE-sensitized cells then encounter multivalent antigen, the antigen clusters IgE-FcεRI complexes and initiates a signal transduction cascade that leads to degranulation, that is, the release of inflammatory mediators, such as cytokines, eicosanoids, histamine and enzymes. The assay can be used as a screening method to identify immune-modulating compounds, in particular compounds useful in the medical management of allergic and inflammatory diseases and asthma. β-hexosaminidase was previously shown to be released with the same kinetics as histamine (Schwartz et al., J Immunology; 123:1445-1450 (1979)), thus offering a simple means to monitor degranulation. The RBL-2H3 cell line has been successfully used to identify compounds with anti-allergic activity (Choo et al. Planta Med., 69:518-522 (2003)).
Cell Culture: RBL-2H3 cells obtained from the German Collection of Microorganisms and Cell Cultures (ACC312) (Braunschweig, Germany) were maintained in 70% Minimum Essential Medium with Earle's Salts, 20% RPMI 1640 Medium, 10% FBS and 2 mM L-glutamine in 95% air/5% CO2 at 37° C. and routinely checked for mycoplasma contamination. Cells were passaged every 3-4 days; after washing cells once with 35 ml PBS cells were incubated 8 min with 5 ml 0.05% Trypsin-EDTA solution at 37° C. Cells were removed from the incubator, 15 ml culture medium was added and cells were resuspended by repeated pipetting.
Cell seeding: cells were harvested with Trypsin-EDTA as described and 50-100 μl cell suspension seeded into Costar CellBind 24 well cluster plates (no. 3337). Plates were kept for 30 min at RT under the sterile hood before being transferred to the incubator. Cells were used within one or two days after seeding.
For sensitization, cells for immediate use were sensitized 6-12 h after plating; cells to be used the following day were sensitized 26-38 h after plating. Culture plates were removed from the incubator and checked for cell growth and contamination. The medium was discarded and cells were sensitized with anti-DNP IgE (0.4 μg/ml) in 0.4 ml culture medium overnight. Following overnight sensitization, cells were washed with 0.8 ml pre-warmed TyB and 0.38 ml test compound or vehicle control (supplemented or not with 1% FBS) were added to duplicate wells. Samples were adjusted to contain 1% vehicle for test compounds dissolved in organic solvents. Cells were incubated for 1 h at 37° C. At the end of the incubation period, cells were routinely stimulated with 20 μl DNP-HSA (2 μg/ml; final concentration 0.1 μg/ml) diluted in TyB and cells were incubated for 15 min at 37° C. Alternatively, cells were stimulated with 20 μl 5 μM ionomycin (final concentration 0.25 μM) or 20 μl 5 μM thapsigargin (final concentration 0.25 μM), both in the absence or presence of 20 nM PMA (final concentration). […]
MUG substrate solution, 100 μl, were added to supernatant and lysate samples and plates were incubated 30 min at 37° C. […] Fluorescene was measured at 365 nm excitation and 440 nm emmission wavelengths. […]

The structures appear in SMILES notation.

As to `CCCCCCCCCCCCCC[N+](C)(C)CC(=O)N(C)C[C@H](O)[C@@H](O)[C@H](O)[C@H](O)CO` [Compound 1a, N-(2-(Dimethyl(tetradecyl)ammonio)acetyl)-N-methyl-D-glucamine chloride], the IC50 came out at 3.8 µM.

By IC50 is commonly meant the concentration needed to halve the response being measured.
